Laboratory results as given in PMC7756341, “Liposomal FRET Assay Identifies Potent Drug‐Like Inhibitors of the Ceramide Transport Protein (CERT)” (Chemistry (Weinheim an Der Bergstrasse, Germany), 2020).
Where “and” joins values, the source holds several entries; their conditions need not be identical. Equal values may be shown once.

Experiments:
HeLa cells [1] = test: Sphingolipid content of treated HeLa cells by quantitative mass spectrometry; assay type: cell-based; settings: for Cer16 / Cer18 / Cer20 / Cer22 / Cer24 / Cer24:1 / Cer total / S1P / SM16 / SM18 / SM20 / SM22 / SM24 / SM24:1 / SM total / Sph / ratio total SM/Cer: HeLa, 42h, single replicates; for Cer16 / Cer18 / Cer20 / Cer22 / Cer24 / Cer24:1 / Cer total / S1P / SM16 / SM18 / SM20 / SM22 / SM24 / SM24:1 / SM total / Sph: 500.000 cells per sample
Method in brief: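 HeLa cells were plated in six-well plates at 177000 cells per well in DMEM containing 4mM L-glutamine, 10% FBS and 1% Penicillin-Streptomycin, then exposed to inhibitor. Harvested cells were adjusted to 500.000 per sample, extracted with methanol/chloroform (2:1) containing Cer17 and d31-SM16 internal standards, and quantified for ceramides and sphingomyelins by C8 reversed-phase HPLC coupled to ESI+ triple-quadrupole MS/MS.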

HeLa cells [2] = test: Cellular localization of BODIPY-ceramide by confocal microscopy; assay type: cell-based; settings: 10 µM inhibitor, 2 h

With `CC1=NN(c2ccc(C)c(C)c2)C(=O)/C1=N\Nc1cccc(-c2cccc(C(=O)O)c2)c1O` [17C9, Eltrombopag] the “effect on SM/Cer rate” value (HeLa cells [1]; HeLa cells) was “dramatically increased”, the “effect on total sphingomyelin” value (HeLa cells [1]; HeLa cells, 48 hours, serum-reduced medium) was “no significant changes” and the Cer16 (HeLa cells [1]; 1 µM) was 34,40 pmol/sample and 29,98 pmol/sample and 31,42 pmol/sample. The Cer18 (HeLa cells [1]; 1 µM) was 3,09 pmol/sample and 3,68 pmol/sample and 2,62 pmol/sample, the Cer20 (HeLa cells [1]; 1 µM) was 0,85 pmol/sample and 3,45 pmol/sample and 0,80 pmol/sample and the Cer22 (HeLa cells [1]; 1 µM) was 6,25 pmol/sample and 5,55 pmol/sample and 6,14 pmol/sample. For the same compound, the Cer24 (HeLa cells [1]; 1 µM) was 18,45 pmol/sample and 16,72 pmol/sample and 19,49 pmol/sample, the “Cer24:1” value (HeLa cells [1]; 1 µM) was 39,87 pmol/sample and 35,52 pmol/sample and 38,79 pmol/sample and the Cer total (HeLa cells [1]; 1 µM) was 102,91 pmol/sample and 96,34 pmol/sample and 97,82 pmol/sample. The S1P (HeLa cells [1]; 1 µM) was 1,15 pmol/sample and 1,32 pmol/sample and 1,00 pmol/sample, the SM16 (HeLa cells [1]; 1 µM) was 1737,34 pmol/sample and 1866,45 pmol/sample and 1725,36 pmol/sample and the SM18 (HeLa cells [1]; 1 µM) was 50,83 pmol/sample and 50,55 pmol/sample and 45,45 pmol/sample. For the same compound, the SM20 (HeLa cells [1]; 1 µM) was 17,12 pmol/sample and 16,70 pmol/sample and 15,18 pmol/sample, the SM22 (HeLa cells [1]; 1 µM) was 108,33 pmol/sample and 106,97 pmol/sample and 93,72 pmol/sample and the SM24 (HeLa cells [1]; 1 µM) was 172,22 pmol/sample and 163,43 pmol/sample and 147,49 pmol/sample. The “SM24:1” value (HeLa cells [1]; 1 µM) was 788,48 pmol/sample and 772,38 pmol/sample and 712,32 pmol/sample, the SM total (HeLa cells [1]; 1 µM) was 2874,32 pmol/sample and 2976,47 pmol/sample and 2739,52 pmol/sample and the Sph (HeLa cells [1]; 1 µM) was 3,11 pmol/sample and 2,70 pmol/sample and 4,01 pmol/sample. The “ratio total SM/Cer” value (HeLa cells [1]; 1 µM) was 29,4 and 28,9 and 28,4, the Cer16 (HeLa cells [1]; 2.5 µM) was 32,36 pmol/sample and 33,19 pmol/sample and 28,45 pmol/sample and the Cer18 (HeLa cells [1]; 2.5 µM) was 3,43 pmol/sample and 3,27 pmol/sample and 2,51 pmol/sample. For the same compound, the Cer20 (HeLa cells [1]; 2.5 µM) was 2,29 pmol/sample and 1,23 pmol/sample and 0,90 pmol/sample, the Cer22 (HeLa cells [1]; 2.5 µM) was 6,89 pmol/sample and 6,59 pmol/sample and 5,14 pmol/sample and the Cer24 (HeLa cells [1]; 2.5 µM) was 19,23 pmol/sample and 20,44 pmol/sample and 16,88 pmol/sample. For the same compound, the “Cer24:1” value (HeLa cells [1]; 2.5 µM) was 39,53 pmol/sample and 38,37 pmol/sample and 33,82 pmol/sample, the Cer total (HeLa cells [1]; 2.5 µM) was 103,73 pmol/sample and 103,08 pmol/sample and 87,70 pmol/sample and the S1P (HeLa cells [1]; 2.5 µM) was 1,23 pmol/sample and 1,05 pmol/sample and 1,02 pmol/sample. The SM16 (HeLa cells [1]; 2.5 µM) was 1702,42 pmol/sample and 1763,99 pmol/sample and 1597,48 pmol/sample, the SM18 (HeLa cells [1]; 2.5 µM) was 47,65 pmol/sample and 51,14 pmol/sample and 44,81 pmol/sample and the SM20 (HeLa cells [1]; 2.5 µM) was 15,77 pmol/sample and 16,69 pmol/sample and 14,30 pmol/sample. The SM22 (HeLa cells [1]; 2.5 µM) was 97,64 pmol/sample and 104,36 pmol/sample and 90,89 pmol/sample, the SM24 (HeLa cells [1]; 2.5 µM) was 148,54 pmol/sample and 158,37 pmol/sample and 140,98 pmol/sample and the “SM24:1” value (HeLa cells [1]; 2.5 µM) was 659,70 pmol/sample and 706,74 pmol/sample and 726,62 pmol/sample. For the same compound, the SM total (HeLa cells [1]; 2.5 µM) was 2548,15 pmol/sample and 2718,76 pmol/sample and 2821,17 pmol/sample, the Sph (HeLa cells [1]; 2.5 µM) was 4,57 pmol/sample and 3,32 pmol/sample and 3,82 pmol/sample and the “ratio total SM/Cer” value (HeLa cells [1]; 2.5 µM) was 29,1 and 26,2 and 27,4. For the same compound, the Cer16 (HeLa cells [1]; 5 µM) was 29,49 pmol/sample and 35,89 pmol/sample and 33,40 pmol/sample, the Cer18 (HeLa cells [1]; 5 µM) was 2,38 pmol/sample and 3,05 pmol/sample and 2,58 pmol/sample and the Cer20 (HeLa cells [1]; 5 µM) was 0,79 pmol/sample and 0,94 pmol/sample and 0,73 pmol/sample. The Cer22 (HeLa cells [1]; 5 µM) was 4,97 pmol/sample and 6,52 pmol/sample and 6,08 pmol/sample, the Cer24 (HeLa cells [1]; 5 µM) was 18,36 pmol/sample and 21,85 pmol/sample and 21,93 pmol/sample and the “Cer24:1” value (HeLa cells [1]; 5 µM) was 34,90 pmol/sample and 40,79 pmol/sample and 38,77 pmol/sample. The Cer total (HeLa cells [1]; 5 µM) was 90,90 pmol/sample and 109,04 pmol/sample and 103,49 pmol/sample, the S1P (HeLa cells [1]; 5 µM) was 0,97 pmol/sample and 0,93 pmol/sample and 0,94 pmol/sample and the SM16 (HeLa cells [1]; 5 µM) was 1510,97 pmol/sample and 1730,88 pmol/sample and 1785,73 pmol/sample. For the same compound, the SM18 (HeLa cells [1]; 5 µM) was 45,08 pmol/sample and 52,99 pmol/sample and 49,27 pmol/sample, the SM20 (HeLa cells [1]; 5 µM) was 14,34 pmol/sample and 17,35 pmol/sample and 16,52 pmol/sample and the SM22 (HeLa cells [1]; 5 µM) was 86,79 pmol/sample and 107,23 pmol/sample and 102,55 pmol/sample. For the same compound, the SM24 (HeLa cells [1]; 5 µM) was 143,47 pmol/sample and 171,51 pmol/sample and 164,74 pmol/sample, the “SM24:1” value (HeLa cells [1]; 5 µM) was 606,54 pmol/sample and 703,57 pmol/sample and 702,64 pmol/sample and the SM total (HeLa cells [1]; 5 µM) was 2407,20 pmol/sample and 2783,54 pmol/sample and 2821,45 pmol/sample. For the same compound, the Sph (HeLa cells [1]; 5 µM) was 3,92 pmol/sample and 3,79 pmol/sample and 3,72 pmol/sample, the “ratio total SM/Cer” value (HeLa cells [1]; 5 µM) was 26,5 and 25,5 and 27,3 and the “effect on intracellular distribution of BODIPY-Cer” value (HeLa cells [2]) was “only minor effects”.
